Results reported in US8536167B2, “Methods for treating ophthalmic, otic, or nasal infections” (Alcon Research, Ltd., priority 2009, dated 2013).
Converted amounts (≈) assume the structure as drawn. Read-outs that look alike come from different tables or passages of the source.

Experiments:
[1] = tested on: Staphylococcus epidermidis - Ciprofloxacin sensitive; assay: In vitro antimicrobial susceptibility test (MIC50); format: cell-based
Description: (§1) A finafloxacin composition at pH 5.8 was compared to ciprofloxacin (pH 5.8) and ofloxacin (pH 5.8 and pH 7) compositions using standard in vitro antimicrobial susceptibility tests (M07-08 Methods for Dilution Antimicrobial Susceptibility Tests for Bacteria that Grow Aerobically; Approved Standard-Eighth Edition (January 2009, Clinical and Laboratory Standards Institute), herein incorporated by reference). Minimum inhibitory concentrations (MIC50) were determined using Gram-positive and Gram-negative test organisms commonly found in otic and ophthalmic infections. The MIC50 was the lowest concentration of antibiotic that prevented growth of the test organism, as determined visually by a lack of turbidity.
(§2) The results of the experiment are presented below in TABLE 1 (Gram-positive organisms) and TABLE 2 (Gram-negative organisms).

[2] = tested on: Staphylococcus aureus - Ciprofloxacin resistant; assay: In vitro antimicrobial susceptibility test (MIC50); format: cell-based
Description: as §1, §2

[3] = tested on: Pseudomonas aeruginosa - Ciprofloxacin sensitive; assay: In vitro antimicrobial susceptibility test (MIC50); format: cell-based
Description: as §1, §2

Haemophilia influenzae = assay: In vitro antimicrobial susceptibility test (MIC50); format: cell-based; details: N = 10
Description: as §1, §2

[4] = tested on: Staphylococcus aureus - Ciprofloxacin sensitive; assay: In vitro antimicrobial susceptibility test (MIC50); format: cell-based
Description: as §1, §2

Pseudomonas otitidis = assay: In vitro antimicrobial susceptibility test (MIC50); format: cell-based; details: Metapseudomonas otitidis, N = 10
Description: as §1, §2

[5] = tested on: Pseudomonas aeruginosa - Ciprofloxacin resistant; assay: In vitro antimicrobial susceptibility test (MIC50); format: cell-based
Description: as §1, §2

Escherichia coli = assay: In vitro antimicrobial susceptibility test (MIC50); format: cell-based
Description: as §1, §2

Enterococcus faecalis = assay: In vitro antimicrobial susceptibility test (MIC50); format: cell-based
Description: as §1, §2

Streptococcus pneumonia = assay: In vitro antimicrobial susceptibility test (MIC50); format: cell-based; details: Streptococcus pneumoniae, N = 10
Description: as §1, §2

Proteus mirabilis = assay: In vitro antimicrobial susceptibility test (MIC50); format: cell-based
Description: as §1, §2

[6] = tested on: Staphylococcus epidermidis - Ciprofloxacin resistant; assay: In vitro antimicrobial susceptibility test (MIC50); format: cell-based
Description: as §1, §2

[7] = Ocular pharmacokinetic study following topical administration; format: in vivo, New Zealand white rabbits
Description: FIGS. 3 and 4 present the results of ocular pharmacokinetic studies following topical administration of finafloxacin and ciprofloxacin compositions. The studies utilized New Zealand white rabbits, and 45 μl of 0.3% test composition was instilled bilaterally.

Pseudomonas aeruginosa [8] = assay: Guinea pig model of acute otitis externa (AOE); format: in vivo; details: for eradication of Pseudomonas: 0.3% composition
Description: Guinea pig ears were slightly abraded and 200 μl of bacterial culture (10^8 CFU) of P. aeruginosa were instilled into each ear. Ears were lavaged with saline and plated onto Pseudomonas isolation media. FIGS. 1a-1d summarize the results of these studies. […] Lower concentration finafloxacin compositions (0.03% and 0.003%) still achieved very substantial 5-6 log reductions of Pseudomonas in the model. […] Using a lower concentration composition (0.03%, shown in FIG. 1c) finafloxacin achieved a 4 log CFU reduction in the single dose study.

Pseudomonas aeruginosa [9] = assay: Rabbit keratitis model (similar test); format: in vivo, New Zealand white rabbits; details: finafloxacin compositions compared to CILOXAN
[10] = Ex vivo corneal perfusion model; format: in vitro ADME; details: 0.1 mM test solutions at pH 7.3, ex vivo, FIG. 2
Description: FIG. 2 presents comparative corneal perfusion data for several quinolone antimicrobials (including finafloxacin) using an ex vivo model. 0.1 mM test solutions at pH 7.3 of four quinolone antimicrobials were compared in the model.

[11] = In vivo ototoxicity study, outer ear irritation; design: species or system Rabbit; details: 0.3% pH 5.7, 0.3%, 0.6%, 1.0% pH 7.5 (0.3% Mg and BAC), 0.2 mL bid for 7 days followed by 7 day observations
Description: TABLE 3 below presents the results of toxicity testing performed in two animals models (chinchilla and rabbit).

[12] = at pH 5.8, N = 10, read-out: MIC50

| SMILES | MIC50 ([1]; at pH 5.8, N = 8) | MIC50 ([2]; at pH 5.8, N = 12) | MIC50 ([3]; at pH 5.8, N = 14) | MIC50 (Haemophilia influenzae; at pH 5.8) | MIC50 ([4]; at pH 5.8, N = 8) | MIC50 (Pseudomonas otitidis; at pH 5.8) | MIC50 ([5]; at pH 5.8, N = 11) | MIC50 (Escherichia coli; at pH 5.8, N = 10) | MIC50 (Enterococcus faecalis; at pH 5.8, N = 10) | MIC50 (Streptococcus pneumonia; at pH 5.8) | MIC50 (Proteus mirabilis; [12]) | MIC50 ([6]; at pH 5.8, N = 12) | further results |
| --- | --- | --- | --- | --- | --- | --- | --- | --- | --- | --- | --- | --- | --- |
| O=C(O)c1cn(C2CC2)c2cc(N3CCNCC3)c(F)cc2c1=O [Ciprofloxacin] | 0.5 µg/mL (≈ 1.51 µM) | 128 µg/mL (≈ 386 µM) | 1 µg/mL (≈ 3.02 µM) | 0.016 µg/mL (≈ 0.0483 µM) | 1 µg/mL (≈ 3.02 µM) | 0.25 µg/mL (≈ 0.754 µM) | 64 µg/mL (≈ 193 µM) | 256 µg/mL (≈ 773 µM) | 128 µg/mL (≈ 386 µM) | 1 µg/mL (≈ 3.02 µM) | 0.125 µg/mL (≈ 0.377 µM) | 128 µg/mL (≈ 386 µM) | corneal stroma tissue concentration ([7]; 45 μl of 0.3% test composition instilled bilaterally, topical, FIG. 3): greater concentrations immediately following instillation; aqueous humor tissue concentration ([7]; 45 μl of 0.3% test composition instilled bilaterally, topical, FIG. 4): greater concentrations immediately following instillation |
| N#Cc1c(N2C[C@@H]3NCCO[C@H]3C2)c(F)cc2c(=O)c(C(=O)O)cn(C3CC3)c12 [Finafloxacin, 8-cyano-1-cyclopropyl-6-fluoro-7-[(4aS,7aS)-hexahydropyrrolo[3,4-b]-1,4-oxazin-6(2H)-yl]-1,4-dihydro-4-oxo-3-quinolinecarboxylic acid] | 0.016 µg/mL (≈ 0.0402 µM) | 4 µg/mL (≈ 10 µM) | 1 µg/mL (≈ 2.51 µM) | 0.008 µg/mL (≈ 0.0201 µM) | 0.016 µg/mL (≈ 0.0402 µM) | 0.125 µg/mL (≈ 0.314 µM) | 16 µg/mL (≈ 40.2 µM) | 4 µg/mL (≈ 10 µM) | 8 µg/mL (≈ 20.1 µM) | 0.25 µg/mL (≈ 0.628 µM) | 0.25 µg/mL (≈ 0.628 µM) | 2 µg/mL (≈ 5.02 µM) | log reductions of Pseudomonas (Pseudomonas aeruginosa [8]; 0.003% composition, two doses, FIG. 1a): 5-6 log; effect of preservative (BAC) on efficacy against Pseudomonas (Pseudomonas aeruginosa [8]; 0.03% and 0.3% compositions with BAC compared to self-preserved compositions, FIG. 1d): does not affect the efficacy; CFU reduction (Pseudomonas aeruginosa [8]; 0.03% composition, single dose study, FIG. 1c): 4 log CFU; log reductions of Pseudomonas (Pseudomonas aeruginosa [8]; 0.03% composition, two doses, FIG. 1a): 5-6 log; performance compared to ciprofloxacin and ofloxacin compositions (Pseudomonas aeruginosa [8]; 0.03%, single dose study, FIG. 1c): performed as well as the ciprofloxacin composition and better than the ofloxacin composition; eradication of Pseudomonas (Pseudomonas aeruginosa [8]; single dose study, FIG. 1b): almost complete eradication of Pseudomonas; eradication of Pseudomonas (Pseudomonas aeruginosa [8]; two separate doses, FIG. 1a): almost complete eradication of Pseudomonas; performance compared to ciprofloxacin (Pseudomonas aeruginosa [8]; tests summarized in FIG. 1a, two doses): performed as well as ciprofloxacin; Pseudomonas CFU reductions (Pseudomonas aeruginosa [9]): inferior Pseudomonas CFU reductions compared to CILOXAN®; corneal perfusion [10]: better corneal perfusion properties than the ciprofloxacin test composition and demonstrates less perfusion relative to the ofloxacin test composition; outer ear irritation [11]: No indications; outer ear irritation ([11]; listed as finafloxacin): did not demonstrate inner or outer ear irritation; aqueous humor tissue concentration ([7]; rabbit, in vivo): comparable at later time points; corneal stroma tissue concentration ([7]; rabbit, in vivo): comparable at later time points |
| CC1COc2c(N3CCN(C)CC3)c(F)cc3c(=O)c(C(=O)O)cn1c23 (stereo not shown) [Ofloxacin] | 1 µg/mL (≈ 2.77 µM) | 64 µg/mL (≈ 177 µM) | 4 µg/mL (≈ 11.1 µM) | 0.031 µg/mL (≈ 0.0858 µM) | 1 µg/mL (≈ 2.77 µM) | 1 µg/mL (≈ 2.77 µM) | 256 µg/mL (≈ 708 µM) | 512 µg/mL (≈ 1420 µM) | 16 µg/mL (≈ 44.3 µM) | 2 µg/mL (≈ 5.53 µM) | 0.5 µg/mL (≈ 1.38 µM) | 32 µg/mL (≈ 88.6 µM) | MIC50 ([1]; at pH 7, N = 8): 0.25 µg/mL (≈ 0.692 µM); MIC50 ([2]; at pH 7, N = 12): 32 µg/mL (≈ 88.6 µM); MIC50 ([3]; at pH 7, N = 14): 2 µg/mL (≈ 5.53 µM); MIC50 (Haemophilia influenzae; at pH 7): 0.031 µg/mL (≈ 0.0858 µM); MIC50 ([4]; at pH 7, N = 8): 0.25 µg/mL (≈ 0.692 µM); MIC50 (Pseudomonas otitidis; at pH 7): 0.25 µg/mL (≈ 0.692 µM); MIC50 ([5]; at pH 7, N = 11): 64 µg/mL (≈ 177 µM); MIC50 (Escherichia coli; at pH 7, N = 10): 16 µg/mL (≈ 44.3 µM); MIC50 (Enterococcus faecalis; at pH 7, N = 10): 128 µg/mL (≈ 354 µM); MIC50 (Streptococcus pneumonia; at pH 7): 1 µg/mL (≈ 2.77 µM); MIC50 (Proteus mirabilis; pH 7): 0.125 µg/mL (≈ 0.346 µM); MIC50 ([6]; at pH 7, N = 12): 16 µg/mL (≈ 44.3 µM) |
